Data on four molecules can be found in US9989533B2, “Anti-TNF induced apoptosis (ATIA) diagnostic markers and therapies” (The United States of America, as represented by the …, priority 2009, dated 2018).

The test system of one data set is ATIA+/+ and ATIA−/− mice. It is filed as in vivo. The note with it: GalN pretreatment, TNFα 2 μg/Kg intravenous, by 8 hr post-treatment. Here is the method: (A) is a schematic diagram of ATIA knockout strategy. (B) and (C) show the generation of ATIA+/− ES cells (B) and ATIA+/− and ATIA−/− mice (C) was confirmed by PCR. […] Survival curves of wild-type (n=5) and ATIA KO (n=8) after TNF treatment. […] Tissue sections were analyzed by H&E (left panels) and TUNNEL (right panels) staining.
To determine whether ATIA is able to protect from TNF-induced apoptosis in vivo, a model of TNF-induced hepatitis (26, 27) was used. […] By 8 hr post-treatment, 20% of ATIA+/+ mice as compared to more than 85% of ATIA—mice were moribund (FIG. 5D). […] No other histological differences were noted. […] To further confirm this observation, we also examined TNF-induced apoptosis in ATIA−/− MEFs. Wild-type and ATIA−/− mouse embryonic fibroblast cell lines were established from 10.5-12.5 day old wild-type and ATIA knockout embryos. The cell lines were verified for the loss of ATIA by genomic PCR analysis and western blotting with the anti-ATIA antibody (data not shown). Cells were treated with TNF and varied doses of cyclohexamide (CHX) (FIG. 6A). […] Cell death induced by UV radiation or staurosporine is however, only moderately affected by the loss of ATIA (FIG. 6B).

The subject of data set [1] is ATIA. It is filed as cell-based.
Data set [2] has as its system ATIA. Briefly: effect of cyclohexamide on ATIA stability, blot (FIG. 28 bottom). It is filed as cell-based, human. Here is the method:
(§1) FIG. 28 is two panels that show the effect of cyclohexamide on ATIA stability and cell apoptosis.
(§2) Experiments were performed with small chemical molecules to reduce ATIA levels in cancer cells. Examples of small molecules that can be used include, but are not limited to, cyclohexamide. […] Preferably, […] is administered locally to the tumor.

A further data set deals with A172 cells. Description: apoptosis (annexin positive cells) after cyclohexamide treatment under hypoxia (FIG. 28 top). In kind it is cell-based, human. The note with it: in the presence of CHX. Here is the method:
as §1, §2

Data set [3] deals with A172, U87MG and 251 glioblastoma cells. Description: TRAIL-induced cell death in glioblastoma cells (FIG. 19). It is filed as cell-based. The settings on record: ATIA-expressing human glioblastoma cells (A172) versus cells which do not express ATIA (U87MG); TRAIL 20 ng/ml, 24 h. The source says:
Next, the sensitivity of ATIA expressing cells to TRAIL-induced cell death was examined. FIG. 19, left panel, is a western blot showing the expression of ATIA in various glioblastoma cell types.

Like-named read-outs stand apart in the source and are kept apart here.

On to TNFα, for which the moribund mice in the data set with ATIA+/+ and ATIA−/− mice (ATIA+/+ mice) is 20%; in the data set with ATIA+/+ and ATIA−/− mice (ATIA−/− mice), “more than 85%”.
On to `[Cl-].[Cl-].[Co+2]` [CoCl2], for which, in the data set on ATIA [1], the ATIA protein expression entry was “considerably increased”.
Regarding `C[C@@H]1C[C@@H]([C@H](O)CC2CC(=O)NC(=O)C2)C(=O)[C@@H](C)C1` [cycloheximide], the “effect on ATIA level” value in the data set with ATIA [2] (0.5 ug, A172 Cells) is “causes the decrease of ATIA”. The “effect on ATIA levels” value in the data set on ATIA [2] (low levels (e.g. 0.1 μg-1.0 μg), tumor cells) is listed as “reduces ATIA levels”. In addition, the apoptosis under hypoxia result with A172 cells was “undergo apoptosis”.

B1: TRAIL: tumour necrosis factor-related apoptosis-inducing ligand (protein, UniProt P50591 1-281, looked up)
Tumor necrosis factor ligand …: MAMMEVQGGPSLGQTCVLIVIFTVLLQSLCVAVTYVYFTNELKQMQDKYSKSGIACFLKEDDSYWDPNDEESMNSPCWQVKWQLRQLVRKMILRTSEETISTVQEKQQNISPLVRERGPQRVAAHITGTRGRSNTLSSPNSKNEKALGRKINSWESSRSGHSFLSNLHLRNGELVIHEKGFYYIYSQTYFRFQEEIKENTKNDKQMVQYIYKYTSYPDPILLMKSARNSCWSKDAEYGLYSIYQGGIFELKENDRIFVSVTNEHLIDMDHEASFFGAFLVG
B1: in data set [3], the “sensitivity to TRAIL-induced cell death” value is recorded as “much more sensitive to TRAIL-induced cell death”.
